Test results from publication PMC12811501, “A plant-derived antimicrobial peptide with multiple mechanisms of action exhibiting antibacterial and antibiofilm activities comparable to or superior to polymyxin B” (Current Research in Microbial Sciences, 2025).
In brackets after ≈: the same amount, converted by molar mass. Residues, ends and D or L forms follow the SMILES beside them.

Legend:
[1] = system: mouse macrophage J774.2 cells; conditions: cited from earlier work
E. coli genomic DNA = test: Gel retardation assay; assay type: binding, Escherichia coli; conditions: 100 ng E. coli genomic DNA, 10 or 100 µM peptide, 30 min at 37 °C
Method: (§1) The DNA- and RNA-binding abilities of NCR169C17–38, its parental peptide NCR169, and two shorter derivatives (NCR169_16–27 and NCR169_17–27) were initially evaluated using a gel retardation assay. In this setup, 100 ng of either E. coli genomic DNA or total RNA was incubated with 10 µM or 100 µM of each peptide for 30 min at 37 °C. Reaction mixtures, along with untreated controls, were then subjected to agarose gel electrophoresis, and the resulting nucleic acid migration patterns were examined for changes indicative of peptide binding. The interaction of NCR169C17–38 with circular plasmid DNA (pDEST-GBKT7) was also characterized using peptide concentrations ranging from 50 µM to 0.8 µM, prepared by 2-fold serial dilution. Experiments were done in three biological replicates.
(§2) To explore whether the NCR169C17–38 peptide has secondary intracellular targets of the bacterial cells beyond the primary membrane disruption, we tested its possible interaction with nucleic acids in gel retardation assays. A pilot experiment indicated strong DNA-binding capacity, prompting us to include the parental NCR169 peptide and the shorter derivatives NCR169_16–27 and NCR169_17–27 for comparison (Fig. 3.). […] Similar results were obtained with total E. coli RNA (Fig. 3.B). […]

E. coli total RNA = test: Gel retardation assay; assay type: binding, Escherichia coli; conditions: 100 ng E. coli total RNA, 10 or 100 µM peptide, 30 min at 37 °C
Method: as §1, §2

[2] = Liposome sedimentation assay; assay type: binding; conditions: 20 μM peptide, 30 min room temperature, 200,000 × g, SDS-PAGE
Method: To prepare the liposomes, phospholipids DMPC and Cardiolipin purchased from Avanti Polar Lipids (Alabaster, AL, USA) were dissolved in Chloroform:Methanol:Water in the ratio of (65:25:4) and (73:23:3) respectively, and dried under vacuum for 1 h. The lipid film was suspended in the assay buffer (20 mM HEPES, 150 mM NaCl, pH 7.0), vortexed, and sonicated for 15 min to form the liposomes. The assay was carried out by incubating 2 mM of the liposomes with 20 μM of NCR169C17–38 peptide and incubated for 30 min at room temperature, followed by ultracentrifugation at 200,000 × g for 15 min at 20 °C. After centrifugation, the supernatant (sn) and pellet (p) fractions were collected separately and were subjected to glycine-SDS-PAGE. The peptides were detected by Coomassie Brilliant Blue staining.
Prepared liposomes were incubated with NCR169C17–38, then separated by ultracentrifugation. Peptide remaining in the supernatant (sn) fraction indicated no binding, whereas peptide detected in the pellet (p) fraction indicated liposome association.

A. baumannii = assay type: cell-based, Acinetobacter baumannii; conditions: 8 h
Method: (§3) For serum stability test human blood was purchased from the Regional Blood Centre in Szeged (the use of human blood has been authorized by the Regional Hungarian Ethics Committee and approved by the Ethics Review Sector of DG RTD (European Commission) in connection with EK’s ERC AdG SymBiotics). The cells from 10 ml of EDTA-blood were centrifuged at 1500 × g for 1 min and washed several times in TBS buffer (10 mM Tris, pH: 7.2, 150 mM NaCl) until the supernatant, representing the serum, became colorless. The NCR169C17–38 peptide was added to the serum at 1:1 ratio and incubated at room temperature for 8 h. Subsequently, serial 2-fold dilutions of the peptide were prepared in PPB, with concentrations ranging from 100 to 0.2 µM and antimicrobial assay was done to determine the MBC values. Experiments were done in three biological replicates.

S. aureus = assay type: cell-based, Staphylococcus aureus; conditions: 8 h
Method: as §3

SMILES: CC[C@H](C)[C@H](NC(=O)[C@H](CCCCN)NC(=O)[C@H](Cc1ccccc1)NC(=O)[C@H](CC(C)C)NC(=O)[C@@H]1CCCN1C(=O)[C@H](CCCCN)NC(=O)[C@H](CCCCN)NC(=O)[C@H](CO)NC(=O)[C@@H](N)CCCCN)C(=O)N[C@@H](Cc1c[nH]c2ccccc12)C(=O)N[C@@H](CCCCN)C(=O)N[C@@H](CS)C(=O)N[C@H](C(=O)N[C@@H](CCC(=O)O)C(=O)N[C@@H](CC(N)=O)C(=O)N[C@H](C(=O)N[C@@H](CS)C(=O)N[C@H](C(=O)N[C@@H](CC(C)C)C(=O)N[C@@H](Cc1c[nH]c2ccccc12)C(=O)N[C@@H](Cc1ccc(O)cc1)C(=O)N[C@@H](CCCCN)C(N)=O)C(C)C)C(C)C)C(C)C [NCR169C17–38] (H-KSKKPLFKIWKCVENVCVLWYK-NH2; N-terminus assumed)
- cytotoxicity [1]: non-cytotoxic
- DNA binding, gel retardation (E. coli genomic DNA): completely preventing DNA migration from the well at the lower concentration
- RNA binding, gel retardation (E. coli total RNA): completely blocked RNA migration at high concentrations
- liposome binding ([2]; 2 mM Cardiolipin liposomes): bound strongly
- liposome binding ([2]; 2 mM DMPC liposomes): no binding
- MBC after pre-incubation in human serum (A. baumannii): 6.3 µM (≈ 17.3 µg/mL)
- MBC after pre-incubation in human serum (S. aureus): 3.1 µM (≈ 8.49 µg/mL)
